Measurements taken from patent publication US20200181101A1, “BENZAMIDE INHIBITORS OF BACTERIAL LIPOPROTEIN SIGNAL PEPTIDASE” (The Scripps Research Institute, priority 2017, published 2020).
Read-outs that look alike come from different tables or passages of the source.

Target: T1, Lsp from E. coli (Escherichia coli, UniProt P00804)
T1 construct: The full-length Lsp clone from E. coli (residues 1-164); His6 with enterokinase cleavage site (pET19b) (N); made in house; host or cells: E. coli Lemo21 (DE3), pET19b vector
Assay: Lsp FRET activity assay, IC50 determination
Format: biochemical
Description: […] […] 50 μM Lsp FRET substrate was subsequently added and the rate of substrate hydrolysis was measured by increase in fluorescence (excitation 355 nm, emission 495 nm) in 96-well plates on a PerkinElmer EnVision plate reader or Tecan Safire 2 microplate reader. Michaelis-Menten constants and […] were determined using GraphPad Prism software (GraphPad, Inc.).

[1] = FRET-based assay, [Lsp] = 400 nM, mean (± SD), read-out: IC50
[2] = Table 2, variation of R3, read-out: IC50
[3] = Table 5, E = 100 nM, read-out: IC50
[4] = FRET-based assay, [Lsp] = 100 nM, mean (± SD), read-out: IC50
[5] = Table 5, [Lsp] = 20 nM, read-out: IC50
[6] = Table 7, linker variation, E = 100 nM, read-out: IC50

T1 sequence (P00804 whole entry, the tested form may be a part): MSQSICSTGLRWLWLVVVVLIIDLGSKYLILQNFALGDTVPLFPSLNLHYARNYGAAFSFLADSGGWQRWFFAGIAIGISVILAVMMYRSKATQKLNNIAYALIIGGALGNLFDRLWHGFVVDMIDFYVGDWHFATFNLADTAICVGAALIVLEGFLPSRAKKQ

CCC(CC)c1nnc(NC(=O)c2cc(OC)c(OC)cc2[N+](=O)[O-])s1 [1a, 4,5-dimethoxy-2-nitro-N-(5-(pentan-3-yl)-1,3,4-thiadiazol-2-yl)benzamide]
IC50 [1]: 4.2 µM | IC50 [2]: 4.2 ± 1 µM | manner of Lsp inhibition (biochemical analysis): non-competitive

CCC(CC)c1nnc(NC(=O)c2cc(Cl)c(Oc3ccc(O)cc3)cc2[N+](=O)[O-])s1 [Sk061-30-1]
IC50 [3]: > 4 µM

CCCCCCOc1cc([N+](=O)[O-])c(C(=O)Nc2nnc(C(CC)CC)s2)cc1OC [1h, 4-(hexyloxy)-5-methoxy-2-nitro-N-(5-(pentan-3-yl)-1,3,4-thiadiazol-2-y)benzamide]
IC50 [4]: 0.11 µM

CCC(CC)c1nnc(NC(=O)c2cc(Cl)c(OC3CCC(C)(C)CC3)cc2[N+](=O)[O-])s1 [Sk061-31-1]
IC50 [3]: 0.23 µM

CCC(CC)c1nnc(NC(=O)c2cc(OC)c(OCc3ccccc3)cc2[N+](=O)[O-])s1 [Sk054-82-3]
IC50 [5]: 2.9 µM

CCC(CC)c1nnc(NC(=O)c2cc(Cl)c(SC3CCCC3)cc2[N+](=O)[O-])s1 [Sk056-22-1]
IC50 [5]: 0.02 µM

N-(5-buty-1,3,4-oxadiazol-2-yl)-4,5-dimethoxy-2-nitrobenzamide [1e]
potency against Lsp, in words (SAR): inactive | IC50 [1]: > 400 µM

CCC(CC)c1nnc(NC(=O)c2ccc(OS(=O)(=O)F)cc2[N+](=O)[O-])s1 [Sk056-45-1]
IC50: 46 µM

CCC(CC)c1nnc(NC(=O)c2cc(OC)c(OC(C)C)cc2[N+](=O)[O-])s1 [1i, 4-isopropoxy-5-methoxy-2-nitro-N-(5-(pentan-3-yl)-1,3,4-thiadiazol-2-yl)benzamide]
effect on cleaved substrate fluorescence: no effect | IC50 [4]: 0.21 µM | Hill constant ([S]=50 μM, [Lsp]=100 nM): approximately 1

CCCCc1nnc(NC(=O)c2cc(OC)c(OC)cc2[N+](=O)[O-])s1 [1d]
IC50 [1]: 29 µM | IC50 [2]: 29 ± 0.6 µM

CCC(CC)c1nnc(NC(=O)c2cc(Cl)c(OC3CCC(F)(F)CC3)cc2[N+](=O)[O-])s1 [Sk061-31-2]
IC50 [3]: 0.58 µM

CCCCC(CC)c1nnc(NC(=O)c2cc(OC)c(OC)cc2[N+](=O)[O-])s1 (stereo not drawn) [Sk061-69-4]
IC50 [2]: 2.5 µM

CCC(CC)c1nnc(NC(=O)c2cc(Cl)c(OCCCCCCN)cc2[N+](=O)[O-])s1 [Sk061-45]
IC50 [3]: > 4 µM

CCC(CC)c1nnc(NC(=O)c2cc(Cl)c(Oc3ccc(N)cc3)cc2[N+](=O)[O-])s1 [Sk061-32]
IC50 [3]: ~4 µM

COc1cc(C(=O)Nc2nnc(C3CC3)s2)c([N+](=O)[O-])cc1OC [Sk052-147-1]
IC50 [2]: 208 µM

CCC(CC)c1nnc(NC(=O)c2ccc(OC)c(OC)c2)s1 [1b]
potency against Lsp, in words (SAR): ablated the potency | IC50 [1]: 110 µM

CCCCCc1nnc(NC(=O)c2cc(OC)c(OC)cc2[N+](=O)[O-])s1 [Sk052-147-2]
IC50 [2]: 26 µM

CCOc1cc([N+](=O)[O-])c(C(=O)Nc2nnc(C(CC)CC)s2)cc1OC [1f, 4-ethoxy-5-methoxy-2-nitro-N-(5-(pentan-3-yl)-1,3,4-thiadiazol-2-yl)benzamide]
IC50 [1]: 1.2 µM

CCC(CC)c1nnc(NC(=O)c2ccc(OS(=O)(=O)F)cc2O)s1 [Sk056-50-4]
IC50: 290 µM

CCC(CC)c1nnc(NC(=O)c2ccccc2[N+](=O)[O-])s1 [Sk054-91-1]
IC50 (Table 4, read-out: IC50): 11 ± 3 µM

CC(C)(C)NC(=O)[C@@H]1C[C@@H]2CCCC[C@@H]2CN1C[C@@H](O)[C@H](Cc1ccccc1)NC(=O)[C@H](CC(N)=O)NC(=O)c1ccc2ccccc2n1 [saquinavir, reference compound]
inhibition of E. coli Lsp by known aspartic acid protease inhibitors: no known aspartic acid protease inhibitors

CCC(CC)c1nnc(NC(=O)c2cc(Cl)c(OCCCCNC(=O)OC(C)(C)C)cc2[N+](=O)[O-])s1 [Sk061-80-2]
IC50 [6]: 1.6 µM

COCCCOc1cc(C[C@@H](C[C@H](N)[C@@H](O)C[C@H](C(=O)NCC(C)(C)C(N)=O)C(C)C)C(C)C)ccc1OC [aliskiren, reference compound]
inhibition of E. coli Lsp by known aspartic acid protease inhibitors: no known aspartic acid protease inhibitors

CCC(CC)c1nnc(NC(=O)c2ccccc2C(=O)O)s1 [Sk056-24]
IC50 (Table 4, read-out: IC50): 270 µM

CCC(CC)c1nnc(NC(=O)c2cc(OS(=O)(=O)F)ccc2[N+](=O)[O-])s1 [Sk054-144]
IC50: 65 µM

CCC(CC)c1nnc(NC(=O)c2ccc(NCCS(=O)(=O)F)cc2[N+](=O)[O-])s1 [Sk056-45-3]
IC50: 19 µM

CCC(CC)c1nnc(NC(=O)c2cc(Cl)c(OCCNC(=O)OC(C)(C)C)cc2[N+](=O)[O-])s1 [Sk061-68]
IC50 [6]: 0.21 µM

CCC(CC)c1nnc(NC(=O)c2cc(Cl)c(Oc3ccc(NC(=O)OC(C)(C)C)cc3)cc2[N+](=O)[O-])s1 [Sk061-29]
IC50 [3]: 0.64 µM | IC50 [6]: 0.64 µM

CCC(CC)c1nnc(NC(=O)c2ccc(OC)cc2[N+](=O)[O-])s1 [Sk052-146-2]
IC50 (Table 4, read-out: IC50): 2.2 µM

CCC(CC)c1nnc(NC(=O)c2cc(Cl)c(OC3CCCN(C(=O)OC(C)(C)C)C3)cc2[N+](=O)[O-])s1 (stereo not drawn) [Sk061-80-5]
IC50 [6]: 0.83 µM

CCC(CC)c1nnc(NC(=O)c2cc(Cl)c(OC3CCCCC3)cc2[N+](=O)[O-])s1 [Sk056-29]
IC50 [5]: 0.068 µM

CCC(CC)c1nnc(NC(=O)c2cc(Cl)c(Oc3ccccc3)cc2[N+](=O)[O-])s1 [Sk056-22-2]
IC50 [5]: 0.19 µM

COc1cc(C(=O)Nc2nnc(C3CCCCC3)s2)c([N+](=O)[O-])cc1OC [Sk052-56]
IC50 [2]: > 400 µM

CCC(CC)c1nnc(NC(=O)c2ccccc2C(=O)OC)s1 [Sk056-13-2]
IC50 (Table 4, read-out: IC50): 12 µM

CCC(CC)c1nnc(NC(=O)c2cc(OC)c(OC3CCCC3)cc2[N+](=O)[O-])s1 [Sk052-145-2]
IC50 [5]: 0.073 µM

COC(=O)CCSCCCCCc1nnc(NC(=O)c2cc(Cl)c(OC3CCCC3)cc2[N+](=O)[O-])s1 [Sk056-26]
IC50 (Table 6, read-out: IC50): 3.2 µM

O=S(=O)(N[C@H](CO)C(C(F)(F)F)C(F)(F)F)c1ccc(Cl)s1 [begacestat, reference compound]
inhibition of E. coli Lsp by known aspartic acid protease inhibitors: no known aspartic acid protease inhibitors

CCOC(=O)Cc1nnc(NC(=O)c2cc(OC)c(OC)cc2[N+](=O)[O-])s1 [Sk052-27-2]
IC50 [2]: 78 µM

CCC(CC)c1nnc(NC(=O)c2cc(Cl)c(OCCCNC(=O)OC(C)(C)C)cc2[N+](=O)[O-])s1 [Sk061-80-1]
IC50 [6]: 1.7 µM

CCC(CC)c1nnc(NC(=O)c2cc(Cl)c(OC3CCCC3)cc2[N+](=O)[O-])s1 [Sk054-116-2]
IC50 [5]: 0.11 ± 0.012 µM | IC50 (Table 6, read-out: IC50): 0.11 ± 0.012 µM

CCC(CC)c1nnc(NC(=O)c2ccc(OC3CCCC3)cc2[N+](=O)[O-])s1 [Sk054-116-1]
IC50 [5]: 0.4 µM

CCCC(CCC)c1nnc(NC(=O)c2cc(OC)c(OC)cc2[N+](=O)[O-])s1 [Sk052-88-1]
IC50 [2]: 1.1 µM

CCC(CC)c1nnc(NC(=O)c2ccc(NC(C)=O)cc2[N+](=O)[O-])s1 [Sk054-112-2]
IC50 (Table 4, read-out: IC50): 160 µM

COc1cc(C(=O)Nc2ccc(C(C)C)cn2)c([N+](=O)[O-])cc1OC [Sk056-82-3]
IC50 (Table 3, read-out: IC50): > 400 µM

CCC(CC)c1nnc(NC(=O)c2cc(Cl)c(OCCCCCCNC(=O)OC(C)(C)C)cc2[N+](=O)[O-])s1 [Sk061-54]
IC50 [3]: ~2.3 µM | IC50 [6]: 2.3 µM

CCC(CC)c1nnc(NC(=O)c2ccc(OC)cn2)s1 [Sk054-91-2]
IC50 (Table 4, read-out: IC50): > 400 µM

O=C(Nc1nnc(CCCCCCl)s1)c1cc(Cl)c(OC2CCCC2)cc1[N+](=O)[O-] [Sk056-15]
IC50 (Table 6, read-out: IC50): 3.8 µM

COc1cc(C(=O)Nc2nnc(CCc3ccccc3)s2)c([N+](=O)[O-])cc1OC [Sk052-88-2]
IC50 [2]: 20 µM

COc1cc(C(=O)Nc2nnc(C(C)C)s2)c([N+](=O)[O-])cc1OC [Sk061-69-1]
IC50 [2]: 44 µM | IC50 (Table 3, read-out: IC50): 44 µM
